Measured values from patent publication US8507537B2, “Trifluromethoxyphenyl-substituted tetramic acid derivatives pesticides and/or herbicides” (Bayer CropScience AG, priority 2006, dated 2013).

Experiments:
Type in all cases: in vivo
Summer barley = assay: Greenhouse container trials with cereals, use of safeners (post-emergence herbicidal effect on crop); settings: without safener; for Summer barley observed (%) herbicidal effect: 10 days after application; for Summer barley observed (%): 28 days after application
Protocol: (§1) Post-Emergence Herbicidal Effect
(§2) Seeds of monocotyledonous and dicotyledonous weed plants and crop plants are placed in sandy loam soil in wood fibre pots or in plastic pots and are covered with earth and cultivated in a greenhouse and also, during the vegetation period, outdoors, outside of the greenhouse, under good growth conditions. 2 to 3 weeks after sowing, the trial plants are treated at the one- to three-leaf stage. The test compounds, formulated as wettable powders (WP) or liquids (EC), are sprayed onto the plants and the soil surface in various dosages, with a water application rate of 300 l/ha (converted) and with addition of wetting agent (0.2% to 0.3%). 3 to 4 weeks after the trial plants have been treated, the effect of the products is rated visually in comparison to untreated controls (herbicidal effect in percent: 100% effect=plants have died, 0% effect=like control plants).
(§3) If the testing is also to look at whether safeners can improve the tolerance of the crop plants for test substances, the following options are used for the application of the safener: • seeds of the crop plants are dressed with the safener substance prior to sowing (the amount of safener is stated as a percentage, based on the seed weight) • crop plants are sprayed with the safener, with a defined application rate per hectare, prior to application of the test substances (typically 1 day before the test substances are applied) • the safener is applied together with the test substance in the form of a tank mix (the amount of safener is reported in g/ha or as a proportion relative to the herbicide).
(§4) By comparing the effect of test substances on crop plants which have been treated with safener and without safener it is possible to assess the effect of the safener substance.
(§5) Greenhouse Container Trials with Cereals
(§6) Mefenpyr 1 Day Prior to Herbicide Application

Summer wheat = assay: as above
Protocol: as §1
as §2, with “3 to 4 weeks after the trial plants have been treated, the effect of the products is rated visually in comparison to untreated controls (herbicidal effect in percent: 100% effect=plants have died, 0% effect=like control plants).” left out
as §3, §4, §5, §6

[1] = test system: cotton aphid (Aphis gossypii); assay: Activity boost through ammonium/phosphonium salts, Aphis gossypii test
Protocol: (§7) Solvent: 7 parts by weight of dimethylformamide
(§8) Emulsifier: 2 parts by weight of alkylaryl polyglycol ether
To produce a suitable preparation of active compound, 1 part by weight of active compound is mixed with the stated amounts of solvent and emulsifier, and the concentrate is diluted with emulsifier-containing water to the desired concentration. For application with ammonium salts or phosphonium salts these are added in a concentration of 1000 ppm a.i. to the spray liquor.
(§9) Cotton plants (Gossypium hirsutum) heavily infested by the cotton aphid (Aphis gossypii) are sprayed to runoff with the preparation of active compound at the desired concentration.
(§10) After the desired period of time, the kill in % is determined. 100% means that all aphids have been killed; 0% means that none of the aphids have been killed.

[2] = test system: green peach aphid (Myzus persicae); assay: Activity boost through ammonium/phosphonium salts in combination with penetration promoters, Myzus persicae test; settings: 20 ppm active compound
Protocol: Activity Boost Through Ammonium/Phosphonium Salts in Combination with Penetration Promoters
as §7, §8
To produce a suitable preparation of active compound, 1 part by weight of active compound is mixed with the stated amounts of solvent and emulsifier, and the concentrate is diluted with water to the desired concentration. For application with ammonium salts or phosphonium salts and penetration promoters (rapeseed oil methyl ester 500 EW) these are in each case added in a concentration of 1000 ppm to the spray liquor.
Bell pepper plants (Capsicum annuum) heavily infested by the green peach aphid (Myzus persicae) are sprayed to runoff with the preparation of active compound at the desired concentration. After the desired time, the kill in % is determined. 100% means that all of the animals have been killed; 0% means that no animals have been killed.

[3] = test system: green peach aphid (Myzus persicae); assay: Activity boost through ammonium/phosphonium salts, Myzus persicae test; settings: 20 ppm active compound
Protocol: Activity Boost Through Ammonium/Phosphonium Salts
as §7, §8
To produce a suitable preparation of active compound, 1 part by weight of active compound is mixed with the stated amounts of solvent and emulsifier, and the concentrate is diluted with water to the desired concentration. For application with ammonium salts or phosphonium salts these are added in a concentration of 1000 ppm a.i. to the spray liquor.
Bell pepper plants (Capsicum annuum) which are heavily infested by the Green peach aphid (Myzus persicae) are treated with the active compound preparation of the desired concentration by spraying to runoff point. After the desired period of time, the kill in % is determined. 100% means that all animals have been killed; 0% means that none of the animals have been killed.

[4] = test system: cotton aphid (Aphis gossypii); assay: Activity boost through ammonium/phosphonium salts in combination with penetration promoters, Aphis gossypii test; settings: 4 ppm active compound
Protocol: as §7, §8
To produce a suitable preparation of active compound, 1 part by weight of active compound is mixed with the stated amounts of solvent and emulsifier, and the concentrate is diluted with emulsifier-containing water to the desired concentration. For application with ammonium salts or phosphonium salts and penetration promoters (rapeseed oil methyl ester 500 EW) these are in each case added in a concentration of 1000 ppm a.i. to the spray liquor.
as §9, §10

[5] = test system: rice brown planthopper (Nilaparvata lugens); assay: Nilaparvata lugens test (NILALU hydroponic treatment); settings: concentration of 500 ppm after 7 d
Protocol: NILALU Hydroponic Treatment
• 78 parts by weight of acetone • 1.5 parts by weight of dimethylformamide Emulsifier: • 0.5 part by weight of alkylaryl polyglycol ether
To produce a suitable preparation of active compound, 1 part by weight of active compound is mixed with the stated amounts of solvents and emulsifier, and the concentrate is diluted with emulsifier-containing water to the desired concentration.
The active compound preparation is pipetted into water. The stated concentration refers to the amount of active compound per volume unit of water (mg/l=ppm); the infection with the rice brown planthopper (Nilaparvata lugens) is then carried out.
After the desired period of time, the effect in % is determined. 100% means that all rice planthoppers have been killed; 0% means that none of the rice planthoppers have been killed.

[6] = 20 ppm active compound, +AS (1000 ppm)
[7] = 20 ppm active compound, without AS
[8] = +RME + AS (in each case 1000 ppm)

CCOC1CCCC2(C1)NC(=O)C(c1c(C)cc(C)cc1OC(F)(F)F)=C2OC(C)=O (single isomer, unassigned) [(I-b-24)]
Summer barley observed (%) herbicidal effect (Summer barley; 12.5 g of a.i./ha): 10% | Summer barley observed (%) herbicidal effect (Summer barley; 25 g of a.i./ha): 20% | Summer barley observed (%) herbicidal effect (Summer barley; 50 g of a.i./ha): 30% | Summer barley observed (%) herbicidal effect (Summer barley; 100 g of a.i./ha): 30% | Summer wheat observed (%) herbicidal effect (Summer wheat; 12.5 g of a.i./ha, 10 days after application, without safener): 30% | Summer wheat observed (%) herbicidal effect (Summer wheat; 25 g of a.i./ha, 10 days after application, without safener): 40% | Summer wheat observed (%) herbicidal effect (Summer wheat; 50 g of a.i./ha, 10 days after application, without safener): 40% | Summer wheat observed (%) herbicidal effect (Summer wheat; 50 g of a.i./ha, 28 days after application, without safener): 20% | Summer wheat observed (%) herbicidal effect (Summer wheat; 100 g of a.i./ha, 10 days after application, without safener): 40% | Summer wheat observed (%) herbicidal effect (Summer wheat; 100 g of a.i./ha, 28 days after application, without safener): 20%

COC1CCC2(CC1)NC(=O)C(c1c(C)cc(C)cc1OC(F)(F)F)=C2OC(C)=O (single isomer, unassigned) [(I-b-25)]
Summer wheat observed (%) herbicidal effect (Summer wheat; 100 g of a.i./ha, 10 days after application, without safener (table of I-b-25)): 20%

CCOC1CCC2(CC1)NC(=O)C(c1c(Br)cc(OC(F)(F)F)cc1Br)=C2O (single isomer, unassigned) [I-a-9]
Kill rate/% after 6 days [1, 6]: 85% | Kill rate/% after 6 days [1, 7]: 65%

COC1CCC2(CC1)NC(=O)C(c1c(Cl)cc(OC(F)(F)F)cc1Cl)=C2O (single isomer, unassigned) [I-a-29]
Kill rate/% after 6 days ([2]; +AS (1000 ppm)): 70% | Kill rate/% after 6 days ([2]; +RME (1000 ppm)): 95% | Kill rate/% after 6 days [2, 8]: 100% | Kill rate/% after 6 days ([2]; without additive): 0% | Kill rate/% after 6 days ([1]; 4 ppm active compound, +AS (1000 ppm)): 70% | Kill rate/% after 6 days ([1]; 4 ppm active compound, without AS): 5% | Kill rate/% after 6 days [1, 6]: 85% | Kill rate/% after 6 days [1, 7]: 70%

COC1CCC2(CC1)NC(=O)C(c1c(Br)cc(OC(F)(F)F)cc1Br)=C2O (single isomer, unassigned) [I-a-32]
Kill rate/% after 6 days ([3]; +AS (1000 ppm)): 85% | Kill rate/% after 6 days ([3]; without AS): 0% | Kill rate/% after 6 days ([4]; +AS (1000 ppm)): 30% | Kill rate/% after 6 days ([4]; +RME (1000 ppm)): 70% | Kill rate/% after 6 days [4, 8]: 80% | Kill rate/% after 6 days ([4]; without additive): 5%

COC1CCC2(CC1)NC(=O)C(c1c(C)cc(OC(F)(F)F)cc1Cl)=C2O (single isomer, unassigned) [I-a-39]
Kill rate/% after 6 days ([3]; +AS (1000 ppm)): 40% | Kill rate/% after 6 days ([3]; without AS): 10%

COC1CCC2(CC1)NC(=O)C(c1c(C)cc(C)cc1OC(F)(F)F)=C2O (single isomer, unassigned) [I-a-49]
Summer wheat observed (%) (Summer wheat; 10 days after application, 25 g of a.i./ha, without safener): 10% | Summer wheat observed (%) (Summer wheat; 10 days after application, 50 g of a.i./ha, without safener): 20% | Summer wheat observed (%) (Summer wheat; 10 days after application, 100 g of a.i./ha, without safener): 40%

COC1CCC2(C1)NC(=O)C(c1c(C)cc(C)cc1OC(F)(F)F)=C2O (single isomer, unassigned) [I-a-50]
Summer barley observed (%) (Summer barley; 12.5 g of a.i./ha): 8% | Summer barley observed (%) (Summer barley; 25 g of a.i./ha): 30% | Summer barley observed (%) (Summer barley; 50 g of a.i./ha): 50% | Summer barley observed (%) (Summer barley; 100 g of a.i./ha): 60% | Summer wheat observed (%) (Summer wheat; 28 days after application, 12.5 g of a.i./ha, without safener): 10% | Summer wheat observed (%) (Summer wheat; 28 days after application, 25 g of a.i./ha, without safener): 40% | Summer wheat observed (%) (Summer wheat; 28 days after application, 50 g of a.i./ha, without safener): 60% | Summer wheat observed (%) (Summer wheat; 28 days after application, 100 g of a.i./ha, without safener): 70%

O=C1NC2(CCOCC2)C(O)=C1c1cc(OC(F)(F)F)ccc1Br [I-a-4]
efficacy [5]: ≥ 80%
